Experiment: Penetration study, Franz diffusion apparatus, human skin (*)
Format: in vitro ADME
Conditions: Example 8; for Reduction of penetration on addition of the compound (in words): results similar to octanoic acid (reduces penetration by 50%)
Method: The following Penetration Studies carried out in the following manner. […] A normal saline solution is added to the lower diffusion cell, abutting the subcutaneous side of the skin. The test composition (comprising a solution of active or actives added to the carrier at the indicated formulation in a conventional manner by thoroughly mixing) is added to the diffusion cell abutting the epidermal side of the skin.
This cell assembly is kept at a constant temperature of about 31° C. At appropriate or desired intervals (these are the time designations given in the following examples) each diffusion cell assembly is opened and the diffusate from the cell abutting the subcutaneous side of the skin is withdrawn. Drug actives in a diffusate is measured using standard analytical techniques. Each trial is run on a separate sample of skin.

Reduction of penetration on addition of the compound (in words)	Reduction of penetration on addition of the compound (added to 1% Triamcinolone in Propylene Glycol + 2% C14 OH, human skin, 0-72 hrs.) [%]	Compound
Substantially similar results	–	CCCCCCCCCCCCCCCCO [cetyl alcohol]
Substantially similar results	–	CCCCCCCCCC(=O)O [decanoic acid]
–	50	CCCCCCCC(=O)O [octanoic acid]

Compound	Reduction of penetration on addition of the compound (in words)	Reduction of penetration on addition of the compound (added to 1% Triamcinolone in Propylene Glycol + 2% C14 OH, human skin, 0-72 hrs.) [%]
CCCCCCCCCCCCCCCCCCO [stearyl alcohol]	Substantially similar results	–

Reference: US4537776A, “Penetrating topical pharmaceutical compositions containing N-(2-hydroxyethyl) pyrrolidone” (priority 1983, dated 1985)
